The results in this text go back to US12398119B2, “Piperazine azaspiro derivatives” (PFIZER INC., priority 2018, dated 2025).

The assay deals with T1, Human M4 mAChR (Homo sapiens, UniProt P08173).
T1 construct: host or cells: HEK293 (Sor-L9 HEK293 human/M4/GloSensor Cell Clone Number 40)
T1 sequence (P08173 1-479): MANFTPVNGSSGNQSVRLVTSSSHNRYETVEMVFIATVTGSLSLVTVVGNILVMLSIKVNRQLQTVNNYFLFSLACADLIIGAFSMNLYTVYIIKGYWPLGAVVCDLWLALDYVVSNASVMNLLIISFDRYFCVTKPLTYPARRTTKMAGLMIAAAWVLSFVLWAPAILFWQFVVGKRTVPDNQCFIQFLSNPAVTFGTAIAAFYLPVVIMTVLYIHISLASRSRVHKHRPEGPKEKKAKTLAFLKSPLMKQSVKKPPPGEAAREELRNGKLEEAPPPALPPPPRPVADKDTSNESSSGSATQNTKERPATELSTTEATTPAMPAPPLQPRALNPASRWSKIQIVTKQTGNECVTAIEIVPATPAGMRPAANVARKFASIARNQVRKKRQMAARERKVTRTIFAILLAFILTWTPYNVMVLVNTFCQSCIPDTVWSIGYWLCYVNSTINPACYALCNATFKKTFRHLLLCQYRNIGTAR
Put plainly: Muscarinic hM4 Agonist GloSensor cAMP Assay. The assay is classed as cell-based. Here is the method:
Muscarinic hM4 Agonist GloSensor cAMP Assay Methods
Compounds were prepared in advance of the assay. Test compounds were solubilized in 100% dimethyl sulfoxide (DMSO, Sigma D8418) to a concentration of 30 mM. A 10-point intermediate dilution series using half log dilutions was created in 100% DMSO with a top concentration of 4 mM. The serially diluted compounds were spotted as 200 nL/well in a 384-well plate (Matrix Catalog Number 4325). The final compound concentration range in the assay was […] to 0.3 nM with a final DMSO concentration of 0.25%.
Human M4 mAChR expressing stable cell lines were generated using a parental HEK cell expressing the GloSensor construct (Promega Sor-L9 HEK293 human/M4/GloSensor Cell Clone Number 40). The cells were grown in 90% Dulbecco's Modified Eagle Medium (DMEM, Gibco 11960), 10% fetal bovine serum (FBS, Hyclone CH.30160-03), 1% Penicillin/Streptomycin (Gibco 15070-063), 500 µg/mL Geneticin (Gibco 10131-027), 200 µg/mL Hygromycin B (Invitrogen 10687-010) and 1% Glutamax (Thermo Fisher 35050061).
One day prior to assay, the cells were lifted using dissociation buffer (Gibco 13151-014) and spun in a centrifuge at 250 times gravity for 5 minutes at room temperature. Supernatant was removed and the cell pellet was resuspended in growth media to a concentration of […]. Cells were then added to white poly-d-lysine coated plates (Becton Dickinson 356661) as 40 μL per well (25,000 cells) and incubated overnight (20-24 hours) in a 37° C. humidified incubator with 5% carbon dioxide (C02).
The following day, culture media was removed from the cell plates and replaced with […] equilibration medium containing 88% CO2-independent medium (Invitrogen 18045088), 10% FBS and 2% GloSensor cAMP reagent (Promega E1291) that had been warmed to 37° C. Plates were then covered and incubated for 2 hours at room temperature while protected from light.
To the previously prepared serially diluted compound plates, 200 nL of 4 mM ACh (Sigma A2661, 10 μM final) or 200 nL of 100% DMSO (0.25% final) was added to the positive and negative control wells, respectively. Compound plates were then diluted by adding 16 μL of C02-independent media containing 10% FBS and an EC80 concentration of isoproterenol (Sigma 16504). Prior to compound testing, concentration response curves were run for isoproterenol to determine the EC80 concentration. At the end of the 2 hour equilibration, 10 µL was transferred from the compound plates to the cell plates. The cell plates were incubated an additional 7 minutes at room temperature and then read using a Multi-label EnVision plate reader (Perkin Elmer) for luminescence.
The raw data, expressed as relative light units, was analyzed using Activity Base (IDBS). The percent effect at each compound concentration was calculated based on and relative to the amount of cAMP produced by the positive and negative control wells contained on each assay plate. The positive control wells contained an EC100 concentration of ACh and the negative control wells contained only DMSO. The concentration and % effect values were fit using a four-parameter logistic dose response equation, and the concentration required for 50% effect (EC50) was determined as well as the maximum asymptote of the concentration response curve to define the efficacy.

[1] abbreviates: Emax: maximum asymptote of concentration response curve, relative to ACh positive control (EC100) and DMSO, geometric mean, read-out: % maximum effect.
Setting [2] is: HEK293 human/M4/GloSensor cells, EC80 isoproterenol, geometric mean, number of determinations in parentheses, read-out: EC50.
Setting [3] is: enantiomers reported in footnotes to Table 1, number of determinations in parentheses, read-out: M4 EC50.

Read-outs that look alike come from different tables or passages of the source.

Usually EC50 stands for the midpoint of the concentration-response curve. Turning to `CCOC(=O)N1CC2(CCC(N3CCN(c4ncccc4-c4ccc5nccn5c4)CC3)C2)C1` (stereo not drawn) [Example 39, ethyl 6-{4-[3-(imidazo[1,2-a]pyridin-6-yl)pyridin-2-yl]piperazin-1-yl}-2-azaspiro[3.4]octane-2-carboxylate], the Emax under setting [1] was 59.6%. For the same compound, under setting [2], the half-maximal effective concentration (EC50) came to 11.7 nM.

`CCOC(=O)N1CC2(CCC(N3CCN(c4cccnc4OC(F)(F)F)CC3)C2)C1` (single isomer, unassigned) [Example 20, ethyl 6-{4-[2-(trifluoromethoxy)pyridin-3-yl]piperazin-1-yl}-2-azaspiro[3.4]octane-2-carboxylate]: the Emax under setting [1] stood at 75.3%. In addition, the concentration for a half-maximal effect (EC50) under setting [2] was found to be 9.9 nM. Taken in the same sequence, the figures for `CCOCCn1cc(-c2cccnc2N2CCN([C@@H]3CCC4(C3)CN(C(=O)OCC)C4)CC2)cn1` [Example 50, ethyl (6R)-6-(4-{3-[1-(2-ethoxyethyl)-1H-pyrazol-4-yl]pyridin-2-yl}piperazin-1-yl)-2-azaspiro[3.4]octane-2-carboxylate] were 89.4% and less than 0.389 nM. Taken in the same sequence, the figures for `CCOC(=O)N1CC2(CC[C@@H](N3CCN(c4ncccc4-c4cnn(CCCCC#N)c4)CC3)C2)C1` [Example 49, ethyl (6R)-6-(4-{3-[1-(4-cyanobutyl)-1H-pyrazol-4-yl]pyridin-2-yl}piperazin-1-yl)-2-azaspiro[3.4]octane-2-carboxylate] were 60.9% and 0.596 nM.

Regarding `CCOC(=O)N1CCC2(CC(N3CCN(c4ncccc4-c4ccc(C#N)cn4)CC3)C2)C1` (single isomer, unassigned) [enantiomer of Example 23, ethyl 2-[4-(5-cyano-2,3′-bipyridin-2′-yl)piperazin-1-yl]-6-azaspiro[3.4]octane-6-carboxylate], the EC50 under setting [3] is greater than 10000 nM. As to `CCOC(=O)N1CC2(CCC(N3CCN(c4ncccc4-c4cnc(O)cn4)CC3)C2)C1` (stereo not drawn) [Example 48, ethyl 6-{4-[3-(5-hydroxypyrazin-2-yl)pyridin-2-yl]piperazin-1-yl}-2-azaspiro[3.4]octane-2-carboxylate], the Emax under setting [1] is 83.9%. For the same compound, the concentration for a half-maximal effect (EC50) under setting [2] was 8.49 nM. With `CCOC(=O)N1CC2(CC(N3CCN(c4ncccc4-c4ccc(C#N)cn4)CC3)C2)C1` [Example 24, ethyl 6-[4-(5-cyano-2,3′-bipyridin-2′-yl)piperazin-1-yl]-2-azaspiro[3.3]heptane-2-carboxylate], the Emax under setting [1] was determined as 70.6%. For the same compound, the EC50 under setting [2] came out at 53.8 nM. Taken in the same sequence, the figures for `CCOC(=O)N1CC2(CCC(N3CCN(c4ncccc4-c4ncco4)CC3)C2)C1` (stereo not drawn) [Example 18, ethyl 6-{4-[3-(1,3-oxazol-2-yl)pyridin-2-yl]piperazin-1-yl}-2-azaspiro[3.4]octane-2-carboxylate] were 54.9% and 5.11 nM. Taken in the same sequence, the figures for `CCOC(=O)N1CC2(CCC(N3CCN(c4cccnc4OC(F)F)CC3)C2)C1` (single isomer, unassigned) [Example 19, ethyl 6-{4-[2-(difluoromethoxy)pyridin-3-yl]piperazin-1-yl}-2-azaspiro[3.4]octane-2-carboxylate] were 78.4% and 1.45 nM. Taken in the same sequence, the figures for `CCOC(=O)N1CC2(CC[C@@H](N3CCN(c4ncccc4OC)CC3)C2)C1` [Example 6, ethyl (6R)-6-[4-(3-methoxypyridin-2-yl)piperazin-1-yl]-2-azaspiro[3.4]octane-2-carboxylate] were 86.3% and 1.57 nM. Consider `CCOC(=O)N1CC2(CCC(N3CCN(c4ncccc4-c4cnc(OC)cn4)CC3)C2)C1` (stereo not drawn) [Example 1, ethyl 6-{4-[3-(5-methoxypyrazin-2-yl)pyridin-2-yl]piperazin-1-yl}-2-azaspiro[3.4]octane-2-carboxylate], for which the Emax under setting [1] is 82.7%. The EC50 under setting [2] came to 4.59 nM. Taken in the same sequence, the figures for `CCOC(=O)N1CC2(CC[C@@H](N3CCN(c4ncccc4N4CC5(COC5)C4)CC3)C2)C1` [Example 44, ethyl (6R)-6-{4-[3-(2-oxa-6-azaspiro[3.3]hept-6-yl)pyridin-2-yl]piperazin-1-yl}-2-azaspiro[3.4]octane-2-carboxylate] were 92.5% and 1 nM. Taken in the same sequence, the figures for `CCOC(=O)N1CC2(CC[C@@H](N3CCN(c4ncccc4-c4cnccn4)CC3)C2)C1` [Example 8, ethyl (6R)-6-{4-[3-(pyrazin-2-yl)pyridin-2-yl]piperazin-1-yl}-2-azaspiro[3.4]octane-2-carboxylate] were 98.7% and 2.23 nM.

In the case of `CCOC(=O)N1CC2(CCC(N3CCN(c4ncc(F)cc4-c4cscn4)CC3)C2)C1` (single isomer, unassigned) [Example 26, ethyl 6-{4-[5-fluoro-3-(1,3-thiazol-4-yl)pyridin-2-yl]piperazin-1-yl}-2-azaspiro[3.4]octane-2-carboxylate], the Emax under setting [1] is 59.8%. The EC50 under setting [2] was 26.4 nM. Taken in the same sequence, the figures for `CCOC(=O)N1CC2(CCC(N3CCN(c4ncccc4-c4cnsn4)CC3)C2)C1` (stereo not drawn) [Example 33, ethyl 6-{4-[3-(1,2,5-thiadiazol-3-yl)pyridin-2-yl]piperazin-1-yl}-2-azaspiro[3.4]octane-2-carboxylate] were 92.3% and 1.31 nM.

Consider `CCOC(=O)N1CC2(CCC(N3CCN(c4ncccc4N4CC(C#N)C4)CC3)C2)C1` (stereo not drawn) [Example 30, ethyl 6-{4-[3-(3-cyanoazetidin-1-yl)pyridin-2-yl]piperazin-1-yl}-2-azaspiro[3.4]octane-2-carboxylate], for which the Emax under setting [1] is 70.3%. In addition, the half-maximal effective concentration (EC50) under setting [2] came out at 2.28 nM.

With `CCOC(=O)N1CC2(CCC(N3CCN(c4ncccc4-c4nccnc4C)CC3)C2)C1` (stereo not drawn) [Example 15, ethyl 6-{4-[3-(3-methylpyrazin-2-yl)pyridin-2-yl]piperazin-1-yl}-2-azaspiro[3.4]octane-2-carboxylate], under setting [1], the Emax is 58.5%. Further, the concentration for a half-maximal effect (EC50) under setting [2] was determined as 17.3 nM. Taken in the same sequence, the figures for `CCOC(=O)N1CCC2(CC(N3CCN(c4ncccc4OC)CC3)C2)C1` (stereo not drawn) [Example 12, ethyl 2-[4-(3-methoxypyridin-2-yl)piperazin-1-yl]-6-azaspiro[3.4]octane-6-carboxylate] were 95.2% and 23.3 nM.

As for `CCOC(=O)N1CC2(CCC(N3CCN(c4ncc(F)cc4-c4cscn4)CC3)C2)C1` (single isomer, unassigned) [enantiomer of Example 26, ethyl 6-{4-[5-fluoro-3-(1,3-thiazol-4-yl)pyridin-2-yl]piperazin-1-yl}-2-azaspiro[3.4]octane-2-carboxylate], under setting [3], the half-maximal effective concentration (EC50) came out at 152 nM. In addition, the Emax (enantiomers reported in footnotes to Table 1, number of determinations in parentheses, read-out: M4 Emax) came to 67.1%. Regarding `CCOC(=O)N1CC2(CCC(N3CCN(c4ncccc4N4CCC(F)(F)C4)CC3)C2)C1` (stereo not drawn) [Example 29, ethyl 6-{4-[3-(3,3-difluoropyrrolidin-1-yl)pyridin-2-yl]piperazin-1-yl}-2-azaspiro[3.4]octane-2-carboxylate], the Emax under setting [1] stood at 84%. Moreover, the 50% effective concentration (EC50) under setting [2] worked out at 4.45 nM.
